Data as given in ChEMBL document CHEMBL1201862, “PubChem BioAssay data set” (2004).
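How tested: cells in 96-well plates exposed to compound for 48 hours at five concentrations. At the GI50, growth is halved.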 The source made the active and inactive calls. Cut-off read from the data, not from the text of the source: active = GI50 up to about 1.1 µM and inactive = higher.

Key:
Assay in all cases: NCI anticancer screen, dose series, 48 h
[1] = tested on: SW-620
[2] = tested on: KM12
[3] = tested on: UACC-257
[4] = tested on: EKVX
[5] = tested on: RPMI-8226
[6] = tested on: SF-295
[7] = tested on: U-251
[8] = tested on: OVCAR-5
[9] = tested on: Malme-3M
[10] = tested on: HOP-62
[11] = tested on: SNB-19
[12] = tested on: NCI-H23
[13] = tested on: DMS-114
[14] = tested on: IGROV-1
[15] = tested on: M14
[16] = tested on: UO-31
[17] = tested on: LXFL 529
[18] = tested on: SK-OV-3
[19] = tested on: SN12C
[20] = tested on: HCT-116
[21] = tested on: M19-MEL
[22] = tested on: SNB-78
[23] = tested on: HOP-18
[24] = tested on: NCI-H522
[25] = tested on: RXF 393
[26] = tested on: XF498
[27] = tested on: CAKI-1
[28] = tested on: DLD-1
[29] = tested on: OVCAR-4
[30] = tested on: 786-0
[31] = tested on: MOLT-4
[32] = tested on: A498
[33] = tested on: NCI-H460
[34] = tested on: OVCAR-3
[35] = tested on: SF-268
[36] = tested on: DMS-273
[37] = tested on: HOP-92
[38] = tested on: SF-539
[39] = tested on: TK-10
[40] = tested on: K562
[41] = tested on: HCT-15
[42] = tested on: SK-MEL-5
[43] = tested on: RXF 631
[44] = tested on: COLO 205
[45] = tested on: A549
[46] = tested on: LOX IMVI
[47] = tested on: UACC-62
[48] = tested on: SK-MEL-28
[49] = tested on: KM-20L2
[50] = tested on: HL-60
[51] = tested on: OVCAR-8
[52] = tested on: ACHN
[53] = tested on: HCC 2998
[54] = tested on: NCI-H226
[55] = tested on: SNB-75
[56] = tested on: HT-29
[57] = tested on: SR
[58] = tested on: CCRF-CEM
[59] = tested on: SK-MEL-2

## O=C(Nc1ccccc1[N+](=O)[O-])c1ccccc1
[1]
  GI50: > 100 µM (inactive)
[2]
  GI50: 55.5 µM (inactive)
[3]
  GI50: > 100 µM (inactive)
[4]
  GI50: 97.7 µM (inactive)
[5]
  GI50: 80.9 µM (inactive)
[6]
  GI50: > 100 µM (inactive)
[7]
  GI50: > 100 µM (inactive)
[8]
  GI50: > 100 µM (inactive)
[9]
  GI50: > 100 µM (inactive)
[10]
  GI50: 67.5 µM (inactive)
[11]
  GI50: > 100 µM (inactive)
[12]
  GI50: > 100 µM (inactive)
[13]
  GI50: 70.1 µM (inactive)
[14]
  GI50: > 100 µM (inactive)
[15]
  GI50: > 100 µM (inactive)
[16]
  GI50: 61.7 µM (inactive)
[17]
  GI50: > 100 µM (inactive)
[18]
  GI50: > 100 µM (inactive)
[19]
  GI50: > 100 µM (inactive)
[20]
  GI50: > 100 µM (inactive)
[21]
  GI50: > 100 µM (inactive)
[22]
  GI50: > 100 µM (inactive)
[23]
  GI50: > 100 µM (inactive)
[24]
  GI50: 56.9 µM (inactive)
[25]
  GI50: 37.3 µM (inactive)
[26]
  GI50: > 100 µM (inactive)
[27]
  GI50: > 100 µM (inactive)
[28]
  GI50: 72.3 µM (inactive)
[29]
  GI50: 82.6 µM (inactive)
[30]
  GI50: > 100 µM (inactive)
[31]
  GI50: 53 µM (inactive)
[32]
  GI50: > 100 µM (inactive)
[33]
  GI50: > 100 µM (inactive)
[34]
  GI50: > 100 µM (inactive)
[35]
  GI50: > 100 µM (inactive)
[36]
  GI50: > 100 µM (inactive)
[37]
  GI50: 65.9 µM (inactive)
[38]
  GI50: > 100 µM (inactive)
[39]
  GI50: > 100 µM (inactive)
[40]
  GI50: > 100 µM (inactive)
[41]
  GI50: > 100 µM
[42]
  GI50: > 100 µM (inactive)
[43]
  GI50: 64.1 µM (inactive)
[44]
  GI50: > 100 µM (inactive)
[45]
  GI50: > 100 µM (inactive)
[46]
  GI50: 95.9 µM (inactive)
[47]
  GI50: > 100 µM (inactive)
[48]
  GI50: > 100 µM (inactive)
[49]
  GI50: > 100 µM (inactive)
[50]
  GI50: > 100 µM (inactive)
[51]
  GI50: > 100 µM (inactive)
[52]
  GI50: > 100 µM (inactive)
[53]
  GI50: > 100 µM (inactive)
[54]
  GI50: 83.8 µM (inactive)
[55]
  GI50: 65.3 µM (inactive)
[56]
  GI50: > 100 µM (inactive)

## CC(C)C(/N=C1\CC2CCC1(C(=O)Nc1ccccc1O)C2(C)C)c1ccccc1 (centres undefined)
[1]
  GI50: 4.8 µM (inactive)
[2]
  GI50: > 10 µM (inactive)
[3]
  GI50: 5.89 µM (inactive)
[4]
  GI50: 7.43 µM (inactive)
[5]
  GI50: 5.11 µM (inactive)
[6]
  GI50: > 10 µM (inactive)
[7]
  GI50: > 10 µM (inactive)
[8]
  GI50: > 10 µM (inactive)
[9]
  GI50: > 10 µM (inactive)
[10]
  GI50: > 10 µM (inactive)
[11]
  GI50: > 10 µM (inactive)
[12]
  GI50: 7.67 µM (inactive)
[13]
  GI50: > 10 µM (inactive)
[57]
  GI50: > 10 µM (inactive)
[14]
  GI50: > 10 µM (inactive)
[15]
  GI50: > 10 µM (inactive)
[16]
  GI50: > 10 µM (inactive)
[17]
  GI50: > 10 µM (inactive)
[18]
  GI50: > 10 µM (inactive)
[19]
  GI50: > 10 µM (inactive)
[20]
  GI50: 6.61 µM (inactive)
[58]
  GI50: > 10 µM (inactive)
[21]
  GI50: > 10 µM (inactive)
[22]
  GI50: > 10 µM (inactive)
[23]
  GI50: > 10 µM (inactive)
[24]
  GI50: 6.58 µM (inactive)
[26]
  GI50: 7.29 µM (inactive)
[27]
  GI50: > 10 µM (inactive)
[28]
  GI50: > 10 µM (inactive)
[29]
  GI50: > 10 µM (inactive)
[30]
  GI50: > 10 µM (inactive)
[31]
  GI50: 3.18 µM (inactive)
[32]
  GI50: > 10 µM (inactive)
[33]
  GI50: 7.67 µM (inactive)
[34]
  GI50: > 10 µM (inactive)
[35]
  GI50: > 10 µM (inactive)
[36]
  GI50: > 10 µM (inactive)
[37]
  GI50: 2.23 µM (inactive)
[38]
  GI50: > 10 µM (inactive)
[59]
  GI50: > 10 µM (inactive)
[39]
  GI50: > 10 µM (inactive)
[40]
  GI50: > 10 µM (inactive)
[41]
  GI50: > 10 µM
[42]
  GI50: 6.44 µM (inactive)
[43]
  GI50: > 10 µM (inactive)
[44]
  GI50: > 10 µM (inactive)
[45]
  GI50: > 10 µM (inactive)
[46]
  GI50: > 10 µM (inactive)
[47]
  GI50: > 10 µM (inactive)
[48]
  GI50: > 10 µM (inactive)
[49]
  GI50: > 10 µM (inactive)
[50]
  GI50: 2.4 µM (inactive)
[51]
  GI50: > 10 µM (inactive)
[52]
  GI50: > 10 µM (inactive)
[53]
  GI50: > 10 µM (inactive)
[54]
  GI50: > 10 µM (inactive)
[55]
  GI50: > 10 µM (inactive)
[56]
  GI50: 9.75 µM (inactive)
